Laboratory results reported in patent US10722501B2 (BAYER AKTIENGESELLSCHAFT, priority 2016, dated 2020).
pIC50: −log10 of the molar value.

Target: T1, recombinant full-length human prolyl endopeptidase (PREP) (Homo sapiens, UniProt P48147)
T1 construct: To recombinant full-length human prolyl endopeptidase (PREP, R&D-Systems, 4308-SE); purchased R&D-Systems 4308-SE
T1 sequence (P48147 1-710): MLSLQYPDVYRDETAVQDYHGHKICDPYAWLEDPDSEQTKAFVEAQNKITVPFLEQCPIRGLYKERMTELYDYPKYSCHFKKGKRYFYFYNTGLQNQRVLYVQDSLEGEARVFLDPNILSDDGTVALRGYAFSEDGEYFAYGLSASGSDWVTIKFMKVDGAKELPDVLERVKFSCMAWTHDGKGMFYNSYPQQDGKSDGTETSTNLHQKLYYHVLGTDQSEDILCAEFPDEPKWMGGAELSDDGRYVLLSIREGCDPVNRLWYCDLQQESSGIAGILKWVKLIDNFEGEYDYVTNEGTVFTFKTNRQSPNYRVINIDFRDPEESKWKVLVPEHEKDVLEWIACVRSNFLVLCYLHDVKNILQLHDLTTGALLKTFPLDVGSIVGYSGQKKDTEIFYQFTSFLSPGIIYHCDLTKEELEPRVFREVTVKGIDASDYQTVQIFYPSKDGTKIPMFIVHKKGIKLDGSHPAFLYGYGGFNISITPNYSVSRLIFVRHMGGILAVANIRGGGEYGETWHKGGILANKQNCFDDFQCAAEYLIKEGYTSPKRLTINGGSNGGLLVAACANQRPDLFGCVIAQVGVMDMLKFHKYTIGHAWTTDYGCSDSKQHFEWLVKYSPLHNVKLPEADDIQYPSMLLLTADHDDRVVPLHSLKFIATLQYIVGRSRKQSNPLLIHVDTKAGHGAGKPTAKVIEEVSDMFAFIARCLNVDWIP
Experiment: Biochemical human prolyl endopeptidase (PREP) assay with fluorescently labelled substrate
Conditions: substrate Z-Gly-Pro-AMC 50 μM, 32° C., 60 min; some as mean values from multiple independent determinations
Summary of the method: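 Initial rates of fluorescence increase from 50 μM Z-Gly-Pro-AMC cleavage (ex 360/em 465 nm, 60 min, 32° C) give percent PREP activity versus no-compound control, and IC50 is interpolated. Enzyme used at 0.4 nM (final, example) in Tris pH 7.5 with EDTA, GSH, BSA and Brij-35; compounds span 1 nM to 30 μM.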

| SMILES | pIC50 |
| --- | --- |
| Cc1ccc(C2(Cn3nc4n(c3=O)[C@H](C(=O)N3CC[C@H](F)C3)CCC4)CC2)cc1 [Example 526, (5S)-5-{[(3S)-3-Fluoropyrrolidin-1-yl]carbonyl}-2-{[1-(4-methylphenyl)cyclopropyl]methyl}-5,6,7,8-tetrahydro[1,2,4]triazolo[4,3-a]pyridin-3(2H)-one] | 9.42 |
| COc1ccc(Cn2nc3n(c2=O)C(C(=O)N2CCCC2)CCC3)cc1C(F)(F)F (racemic) [Example 63] | 9.13 |
| Cc1cc(C)c(Cn2nc3n(c2=O)[C@H](C(=O)N2CCCC2)CCC3)cc1C [Example 102, (5S)-5-(Pyrrolidin-1-ylcarbonyl)-2-(2,4,5-trimethylbenzyl)-5,6,7,8-tetrahydro[1,2,4]triazolo[4,3-a]pyridin-3(2H)-one] | 9.60 |
| O=C([C@@H]1CCC(F)(F)c2nn(Cc3ccc(Cl)nc3)c(=O)n21)N1CCC(F)(F)C1 [Example 557, (5S)-2-[(6-Chloropyridin-3-yl)methyl]-5-[(3,3-difluoropyrrolidin-1-yl)carbonyl]-8,8-difluoro-5,6,7,8-tetrahydro[1,2,4]triazolo[4,3-a]pyridin-3(2H)-one] | 8.49 |
| Cc1ccc(C(=O)Cn2nc3n(c2=O)[C@H](C(=O)N2CC[C@H](F)C2)CCC3)cc1 [Example 516, (5S)-5-{[(3S)-3-Fluoropyrrolidin-1-yl]carbonyl}-2-[2-(4-methylphenyl)-2-oxoethyl]-5,6,7,8-tetrahydro[1,2,4]triazolo[4,3-a]pyridin-3(2H)-one] | 8.38 |
| O=C(C1CCCc2nn(CC3CCC(F)(F)CC3)c(=O)n21)N1CCCC1 (racemic) [Example 41, (5RS)-2-[(4,4-Difluorocyclohexyl)methyl]-5-(pyrrolidin-1-ylcarbonyl)-5,6,7,8-tetrahydro[1,2,4]triazolo[4,3-a]pyridin-3(2H)-one] | 7.89 |
| Cc1ccc(Cn2nc3n(c2=O)C(C(=O)N2CCCC2)C(C)CC3)cc1 (single isomer, unassigned) [Example 139, (5RS,6RS)-6-Methyl-2-(4-methylbenzyl)-5-(pyrrolidin-1-ylcarbonyl)-5,6,7,8-tetrahydro[1,2,4]triazolo[4,3-a]pyridin-3(2H)-one] | 9.06 |
| O=C([C@@H]1CCCc2nn(Cc3cccc(C(F)(F)F)c3)c(=O)n21)N1CCC(F)(F)C1 [Example 446, (5S)-5-[(3,3-Difluoropyrrolidin-1-yl)carbonyl]-2-[3-(trifluoromethyl)benzyl]-5,6,7,8-tetrahydro[1,2,4]triazolo[4,3-a]pyridin-3(2H)-one] | 9.14 |
| O=C([C@@H]1CCCc2nn(Cc3ccc(F)c(F)c3)c(=O)n21)N1CCC(F)(F)C1 [Example 468, (5S)-2-(3,4-Difluorobenzyl)-5-[(3,3-difluoropyrrolidin-1-yl)carbonyl]-5,6,7,8-tetrahydro[1,2,4]triazolo[4,3-a]pyridin-3(2H)-one] | 8.85 |
| O=C([C@@H]1CCCc2nn(Cc3ccc(F)nc3)c(=O)n21)N1CC(F)(F)C1 [Example 537, (5S)-5-[(3,3-Difluoroazetidin-1-yl)carbonyl]-2-[(6-fluoropyridin-3-yl)methyl]-5,6,7,8-tetrahydro[1,2,4]triazolo[4,3-a]pyridin-3(2H)-one] | 8.06 |
| O=C(C1CC(C(F)(F)F)Cc2nn(Cc3ccnc(C(F)(F)F)c3F)c(=O)n21)N1C[C@@H](F)[C@@H](F)C1 (single isomer, unassigned) [Example 261] | 9.00 |
| O=C(C1CCCc2nn(Cc3ccc(Cl)nc3)c(=O)n21)N1CCCC1 (single isomer, unassigned) [Example 32, (5RS)-2-[(6-Chloropyridin-3-yl)methyl]-5-(pyrrolidin-1-ylcarbonyl)-5,6,7,8-tetrahydro[1,2,4]triazolo[4,3-a]pyridin-3(2H)-one] | 8.83 |

Now from value to compound:

| pIC50 | SMILES |
| --- | --- |
| 8.76 | O=C([C@@H]1CCCc2nn(CCc3ncc(C(F)(F)F)cc3Cl)c(=O)n21)N1CC[C@H](F)C1 [Example 342, (5S)-2-{2-[3-Chloro-5-(trifluoromethyl)pyridin-2-yl]ethyl}-5-{[(3S)-3-fluoropyrrolidin-1-yl]carbonyl}-5,6,7,8-tetrahydro[1,2,4]triazolo[4,3-a]pyridin-3(2H)-one] |
| 8.92 | O=C([C@@H]1CCCc2nn(Cc3cccc(C(F)(F)F)n3)c(=O)n21)N1C[C@@H](F)[C@@H](F)C1 [Example 371, (5S)-5-{[(3R,4S)-3,4-Difluoropyrrolidin-1-yl]carbonyl}-2-{[6-(trifluoromethyl)pyridin-2-yl]methyl}-5,6,7,8-tetrahydro[1,2,4]triazolo[4,3-a]pyridin-3(2H)-one] |
| 9.42 | O=C([C@@H]1CCCc2nn(Cc3ccc(Cl)nc3)c(=O)n21)N1C[C@@H](F)[C@@H](F)C1 [Example 424, (5S)-2-[(6-Chloropyridin-3-yl)methyl]-5-{[(3R,4S)-3,4-difluoropyrrolidin-1-yl]carbonyl}-5,6,7,8-tetrahydro[1,2,4]triazolo[4,3-a]pyridin-3(2H)-one] |
| 8.59 | O=C([C@@H]1CCCc2nn(Cc3ccc(Cl)cn3)c(=O)n21)N1C[C@@H](F)[C@@H](F)C1 [Example 378, (5S)-2-[(5-Chloropyridin-2-yl)methyl]-5-{[(3R,4S)-3,4-difluoropyrrolidin-1-yl]carbonyl}-5,6,7,8-tetrahydro[1,2,4]triazolo[4,3-a]pyridin-3(2H)-one] |
| 9.39 | O=C(C1CC(C(F)(F)F)Cc2nn(Cc3cncc(Cl)c3)c(=O)n21)N1CC[C@H](F)C1 (single isomer, unassigned) [Example 317] |
| 8.26 | O=C([C@@H]1CCCc2nn(Cc3ccc(C(F)(F)F)nc3)c(=O)n21)N1CCC2CC21 (single isomer, unassigned) [Example 201] |
| 8.59 | O=C(C1CC(C(F)(F)F)Cc2nn(Cc3ncc(Cl)cc3F)c(=O)n21)N1CC[C@H](F)C1 (mixture of isomers) [Example 264, (5RS,7RS)-2-[(5-Chloro-3-fluoropyridin-3-yl)methyl]-5-{[(3S)-3-fluoropyrrolidin-1-yl]carbonyl}-7-(trifluoromethyl)-5,6,7,8-tetrahydro[1,2,4]triazolo[4,3-a]pyridin-3(2H)-one] |
| 8.05 | O=C(C1CCCc2nn(Cc3ccc(F)c(Cl)c3)c(=O)n21)N1CC(O)C1 (racemic) [Example 95, (5RS)-2-(3-Chloro-4-fluorobenzyl)-5-[(3-hydroxyazetidin-1-yl)carbonyl]-5,6,7,8-tetrahydro[1,2,4]triazolo[4,3-a]pyridin-3(2H)-one] |
| 9.20 | O=C([C@@H]1CCC(F)(F)c2nn(Cc3ncc(Cl)cc3F)c(=O)n21)N1CC[C@H](F)C1 [Example 556, (5S)-2-[(5-chloro-3-fluoropyridin-2-yl)methyl]-8,8-difluoro-5-{[(3S)-3-fluoropyrrolidin-1-yl]carbonyl}-5,6,7,8-tetrahydro[1,2,4]triazolo[4,3-a]pyridin-3(2H)-one] |
| 9.24 | O=C([C@@H]1CCCc2nn(Cc3nccc(C(F)(F)F)c3Cl)c(=O)n21)N1C[C@@H](F)[C@@H](F)C1 [Example 388, (5S)-2-{[3-Chloro-4-(trifluoromethyl)pyridin-2-yl]methyl}-5-{[(3R,4S)-3,4-difluoropyrrolidin-1-yl]carbonyl}-5,6,7,8-tetrahydro[1,2,4]triazolo[4,3-a]pyridin-3(2H)-one] |
| 7.82 | O=C(C1C(C(F)(F)F)CCc2nn(Cc3ccc(Cl)cn3)c(=O)n21)N1CC(F)C1 (racemic) [Example 310, (5RS,6RS)-2-[(5-Chloropyridin-2-yl)methyl]-5-[(3-fluoroazetidin-1-yl)carbonyl]-6-(trifluoromethyl)-5,6,7,8-tetrahydro[1,2,4]triazolo[4,3-a]pyridin-3(2H)-one] |
| 8.46 | O=C(C1C(C(F)(F)F)CCc2nn(Cc3ccc(Cl)cn3)c(=O)n21)N1CC[C@H](F)C1 (single isomer, unassigned) [Example 299] |
| 6.87 | O=C([C@@H]1CCCc2nn(Cc3cc(C(F)(F)F)c(Cl)cn3)c(=O)n21)N1CC(O)C1 [Example 373, (5S)-2-{[5-Chloro-4-(trifluoromethyl)pyridin-2-yl]methyl}-5-[(3-hydroxyazetidin-1-yl)carbonyl]-5,6,7,8-tetrahydro[1,2,4]triazolo[4,3-a]pyridin-3(2H)-one] |
| 8.96 | O=C(C1CC(C(F)(F)F)Cc2nn(Cc3ncc(F)cc3Cl)c(=O)n21)N1CC[C@H](F)C1 (mixture of isomers) [Example 571, (5RS,7RS)-2-[(3-Chloro-5-fluoropyridin-2-yl)methyl]-5-{[(3S)-3-fluoropyrrolidin-1-yl]carbonyl}-7-(trifluoromethyl)-5,6,7,8-tetrahydro[1,2,4]triazolo[4,3-a]pyridin-3(2H)-one] |
| 8.33 | O=C([C@@H]1CCCc2nn(Cc3cncc(Cl)c3)c(=O)n21)N1CC(F)C1 [Example 436, (5S)-2-[(5-Chloropyridin-3-yl)methyl]-5-[(3-fluoroazetidin-1-yl)carbonyl]-5,6,7,8-tetrahydro[1,2,4]triazolo[4,3-a]pyridin-3(2H)-one] |
